{"source": "patent US5330989A", "about": "“Heterocycles substituted with biphenyl-3-cyclobutene-1,2-dione derivatives” (American Home Products Corporation, priority 1992, dated 1994)", "tested_on": "A II-infused rat", "assay": "A II-infused rat model, antihypertensive activity (arterial pressure)", "assay_type": "in vivo", "conditions": "3 mg/kg id (duodenal cannula); four hours post-administration; mecamylamine ganglion blockade; A II infusion […]", "description": "In accordance with their ability to antagonize angiotensin II, the compounds of this invention show antihypertensive activity in the following A II-infused rat model. Rats are anesthetized with Dial-Urethane(0.60 mL/kg, ip) and the trachea cannulated with PE 240. Either one femoral artery and both femoral veins or the carotid artery and the corresponding jugular vein are cannulated with PE 50. If the jugular vein is cannulated, two cannulas are placed in the one vein. The initial portion of the duodenum (just distal to the stomach) is cannulated with PE 50 via a small midline incision. Arterial pressure and heart rate are measured from the arterial cannula. Ten to 15 min are allowed following surgery for stabilization of arterial pressure. Ganglion blockage is then produced by intravenous administration of mecamylamine at 3 mg/kg (1 mL/kg of a 3 mg/mL solution). Ganglion blockade causes a fall in arterial pressure of about 50 mmHg. Mecamylamine is given every 90 min throughout the remainder of the experiment. An A II infusion is then begun into the other venous cannula at 0.25 μg/kg/min (at 9.6 μL/min). The A II infusion returns arterial pressure to or slightly above the control level. Once arterial pressure has stabilized with the A II infusion, baseline values for mean arterial pressure (MAP) and heart rate are taken. […]"}
{"smiles": "O=c1c(O)c(-c2ccccc2-c2ccc(CNc3nc(C(F)(F)F)nc4c3CCCC4)cc2)c1=O", "note": "[Example 1, 3-hydroxy-4-[4'-[[[5,6,7,8-tetrahydro-2-(trifluoromethyl)-4-quinazolinyl]amino]methyl][1,1'-biphenyl]-2-yl]-3-cyclobutene-1,2-dione]", "values": [{"measurement": "average lowering of the A II dependent blood pressure", "value": 52, "unit": "%"}]}
